Experimental data: US11535630B2, “Apelin receptor (APJ) agonists and uses thereof” (Research Triangle Institute, priority 2015, dated 2022)

Molecular target: T1, apelin receptor (APJ) (Homo sapiens, UniProt P35414)
T1 sequence (P35414 1-380): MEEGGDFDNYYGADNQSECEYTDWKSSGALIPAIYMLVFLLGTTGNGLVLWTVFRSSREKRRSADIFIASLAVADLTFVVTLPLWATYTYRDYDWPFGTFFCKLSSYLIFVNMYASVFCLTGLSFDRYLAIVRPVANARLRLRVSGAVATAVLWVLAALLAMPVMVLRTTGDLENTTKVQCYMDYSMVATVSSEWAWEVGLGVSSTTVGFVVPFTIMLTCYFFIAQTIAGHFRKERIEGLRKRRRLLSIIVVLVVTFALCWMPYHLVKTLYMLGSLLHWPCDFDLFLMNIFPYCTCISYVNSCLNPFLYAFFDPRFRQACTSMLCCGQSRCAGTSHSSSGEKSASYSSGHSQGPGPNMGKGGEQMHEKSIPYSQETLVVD
Test: In vitro apelin agonist activity (methods of Giddings et al., Apelin-13 as positive control)
Assay type: cell-based
Conditions: EC50 (nM) Ave, in vitro apelin agonist activity, methods of Giddings et al., Apelin-13 as positive control
Text: Characterization of the Apelin Agonist Activity of the Compounds
1:39-47, the contents of which are hereby incorporated by reference in its entirety. Using the methods described in Giddings et al. and Apelin-13 as a positive control.

`O=C(C[C@H](CN1CCC(F)(F)C1)NC(=O)c1cc(-c2ccccc2C(F)(F)F)n(C2CCCC2)n1)NC1CCC1` [compound 523, (3R)-N-cyclobutyl-3-({1-cyclopentyl-5-[2-(trifluoromethyl)phenyl]-1H-pyrazol-3-yl}formamido)-4-(3,3-difluoropyrrolidin-1-yl)butanamide] was tested, and the EC50 was 1210 nM.

Same assay, conditions: in vitro apelin agonist activity, methods of Giddings et al., Apelin-13 as positive control; read-out: EC50 (nM) Ave

Going from `O=C(O)C[C@H](CCN1CCCCC1=O)NC(=O)c1cc(-c2ccccc2C(F)(F)F)n(C2CCCC2)n1` [compound 587, (3S)-3-({1-cyclopentyl-5-[2-(trifluoromethyl)phenyl]-1H-pyrazol-3-yl}formamido)-5-(2-oxopiperidin-1-yl)pentanoic acid] to `O=C(O)C[C@H](CCN1CCCCC1)NC(=O)c1cc(-c2ccccc2C(F)(F)F)n(C2CCCC2)n1` [compound 494, (3S)-3-({1-cyclopentyl-5-[2-(trifluoromethyl)phenyl]-1H-pyrazol-3-yl}formamido)-5-(piperidin-1-yl)pentanoic acid], the EC50 falls from 355 nM to 215 nM (1.7-fold).

Going from `O=C(C[C@H](CCN1C2CCCC1CC2)NC(=O)c1cc(-c2ccccc2C(F)(F)F)n(C2CCCC2)n1)NC1CCC1` [compound 498, (3S)-5-{8-azabicyclo[3.2.1]octan-8-yl}-N-cyclobutyl-3-({1-cyclopentyl-5-[2-(trifluoromethyl)phenyl]-1H-pyrazol-3-yl}formamido)pentanamide] to `O=C(C[C@H](CCN1CCCCC1)NC(=O)c1cc(-c2ccccc2C(F)(F)F)n(C2CCCC2)n1)NC1CCC1` [compound 408, (3S)-N-cyclobutyl-3-({1-cyclopentyl-5-[2-(trifluoromethyl)phenyl]-1H-pyrazol-3-yl]formamido)-5-(piperidin-1-yl)pentanamide], the EC50 falls from 105 nM to 64 nM (1.6-fold). The second is the more potent here.

Going from `CN(C(=O)C[C@H](CCN1CCCC(F)(F)C1)NC(=O)c1cc(-c2ccccc2C(F)(F)F)n(C2CCCC2)n1)c1nccs1` [compound 431, (3S)-3-({1-cyclopentyl-5-[2-(trifluoromethyl)phenyl]-1H-pyrazol-3-yl}formamido)-5-(3,3-difluoropiperidin-1-yl)-N-methyl-N-(1,3-thiazol-2-yl)pentanamide] to `O=C(O)C[C@H](CCN1CCCC(F)(F)C1)NC(=O)c1cc(-c2ccccc2C(F)(F)F)n(C2CCOCC2)n1` [compound 553, (3S)-5-(3,3-difluoropiperidin-1-yl)-3-{[1-(oxan-4-yl)-5-[2-(trifluoromethyl)phenyl]-1H-pyrazol-3-yl]formamido}pentanoic acid], the EC50 rises from 22.5 nM to 1480 nM (66-fold). The first is the more potent here.

Going from `COc1cccc(OC)c1-c1cc(C(=O)N[C@@H](CCc2ccccc2)C(=O)O)nn1C1CCCC1` [compound 389, (2S)-2-{[1-cyclopentyl-5-(2,6-dimethoxyphenyl)-1H-pyrazol-3-yl]formamido}-4-phenylbutanoic acid] to `COc1cccc(OC)c1-c1cc(C(=O)N[C@@H](CC2CCCC2)C(=O)O)nn1C1CCCC1` [compound 393, (2S)-3-cyclopentyl-2-{[1-cyclopentyl-5-(2,6-dimethoxyphenyl)-1H-pyrazol-3-yl]formamido}propanoic acid], the EC50 falls from greater than 10000 nM to 424 nM.

Compared with `CC(c1nnn[nH]1)[C@H](CCN1CC2C(C1)C2(F)F)NC(=O)c1cc(-c2ccccc2C(F)(F)F)n(C2CCCC2)n1` (stereo partly drawn) [compound 637, 1-cyclopentyl-N-[(3S)-1-{6,6-difluoro-3-azabicyclo[3.1.0]hexan-3-yl}-4-(1H-1,2,3,4-tetrazol-5-yl)pentan-3-yl]-5-[2-(trifluoromethyl)phenyl]-1H-pyrazole-3-carboxamide], `O=C(O)C[C@H](CN1CCC(F)(F)C1)NC(=O)c1cc(-c2ccccc2C(F)(F)F)n(C2CCCC2)n1` [compound 518, (3R)-3-({1-cyclopentyl-5-[2-(trifluoromethyl)phenyl]-1H-pyrazol-3-yl}formamido)-4-(3,3-difluoropyrrolidin-1-yl)butanoic acid] is higher in EC50: 21 nM for the first, greater than 10000 nM for the second.

`COc1cccc(OC)c1-c1cc(C(=O)N[C@@H](CCN2CCN(C)CC2)CC(=O)O)nn1C1CCCC1` [compound 308, (3S)-3-{[1-cyclopentyl-5-(2,6-dimethoxyphenyl)-1H-pyrazol-3-yl]formamido}-5-(4-methylpiperazin-1-yl)pentanoic acid] and `COc1cccc(OC)c1-c1cc(C(=O)N[C@@H](CCN2CCOCC2)CC(=O)OC(C)(C)C)nn1C1CCCC1` [compound 303, tert-butyl (3S)-3-{[1-cyclopentyl-5-(2,6-dimethoxyphenyl)-1H-pyrazol-3-yl]formamido}-5-(morpholin-4-yl)pentanoate] cannot be ordered by EC50: greater than 10000 nM for the first, greater than 10000 nM for the second.

First: O=C(O)C[C@H](CCN1CCCC[C@@H]1C(F)(F)F)NC(=O)c1cc(-c2ccccc2C(F)(F)F)n(C2CCCC2)n1 [compound 488, (3S)-3-({1-cyclopentyl-5-[2-(trifluoromethyl)phenyl]-1H-pyrazol-3-yl}formamido)-5-[(2R)-2-(trifluoromethyl)piperidin-1-yl]pentanoic acid]
Second: O=C(O)C[C@H](CCN1CCCC[C@H]1C(F)(F)F)NC(=O)c1cc(-c2ccccc2C(F)(F)F)n(C2CCCC2)n1 [compound 487, (3S)-3-({1-cyclopentyl-5-[2-(trifluoromethyl)phenyl]-1H-pyrazol-3-yl}formamido)-5-[(2S)-2-(trifluoromethyl)piperidin-1-yl]pentanoic acid]
The EC50 of the first is 4.8-fold higher: 1340 nM for the first, 277 nM for the second. The second is the more potent here.

Compared with `Cc1nnc(C[C@H](CCN2CCCC(F)(F)C2)NC(=O)c2cc(-c3ccccc3Cl)n(C3CCCC3)n2)[nH]1` [compound 458, 5-(2-chlorophenyl)-1-cyclopentyl-N-[(2S)-4-(3,3-difluoropiperidin-1-yl)-1-(5-methyl-4H-1,2,4-triazol-3-yl)butan-2-yl]-1H-pyrazole-3-carboxamide], `O=C(N[C@@H](CCN1CCCC(F)(F)C1)Cc1nnc[nH]1)c1cc(-c2ccccc2Cl)n(C2CCCC2)n1` [compound 450, 5-(2-chlorophenyl)-1-cyclopentyl-N-[(2S)-4-(3,3-difluoropiperidin-1-yl)-1-(4H-1,2,4-triazol-3-yl)butan-2-yl]-1H-pyrazole-3-carboxamide] is 8.7-fold lower in EC50: 261 nM for the first, 30 nM for the second.

`COc1cccc(OC)c1-c1cc(C(=O)N[C@H](CC(=O)O)c2ccccc2)nn1CC(C)C` [compound 300, (3R)-3-{[5-(2,6-dimethoxyphenyl)-1-(2-methylpropyl)-1H-pyrazol-3-yl]formamido}-3-phenylpropanoic acid] and `CCC(CC)n1nc(C(=O)N[C@@H](CCC2CCCCC2)CC(=O)O)cc1-c1c(OC)cccc1OC` [compound 649, (3S)-5-cyclohexyl-3-{[5-(2,6-dimethoxyphenyl)-1-(pentan-3-yl)-1H-pyrazol-3-yl]formamido}pentanoic acid] cannot be ordered by EC50: greater than 10000 nM for the first, greater than 10000 nM for the second.

Compared with `CC1(C)CCCCN1CC[C@@H](CC(=O)NC1CCC1)NC(=O)c1cc(-c2ccccc2C(F)(F)F)n(C2CCCC2)n1` [compound 517, (3S)-N-cyclobutyl-3-({1-cyclopentyl-5-[2-(trifluoromethyl)phenyl]-1H-pyrazol-3-yl}formamido)-5-(2,2-dimethylpiperidin-1-yl)pentanamide], `O=C(O)C[C@H](CC(=O)N1CCCCC1)NC(=O)c1cc(-c2ccccc2C(F)(F)F)n(C2CCCC2)n1` [compound 508, (3S)-3-({1-cyclopentyl-5-[2-(trifluoromethyl)phenyl]-1H-pyrazol-3-yl}formamido)-5-oxo-5-(piperidin-1-yl)pentanoic acid] is 1.8-fold higher in EC50: 261 nM for the first, 475 nM for the second.

Compared with `CC(C[C@@H](CC(=O)O)NC(=O)c1cc(-c2ccccc2C(F)(F)F)n(C2CCCC2)n1)N1CCC(F)(F)C1` (stereo partly drawn) [compound 567, (3S)-3-({1-cyclopentyl-5-[2-(trifluoromethyl)phenyl]-1H-pyrazol-3-yl}formamido)-5-(3,3-difluoropyrrolidin-1-yl)hexanoic acid], `CC1CCC(F)(F)CN1CC[C@@H](CC(=O)O)NC(=O)c1cc(-c2ccccc2C(C)(F)F)n(C2CCCC2)n1` (stereo partly drawn) [compound 607, (3S)-3-({1-cyclopentyl-5-[2-(1,1-difluoroethyl)phenyl]-1H-pyrazol-3-yl}formamido)-5-(5,5-difluoro-2-methylpiperidin-1-yl)pentanoic acid] is 9.4-fold lower in EC50: 648 nM for the first, 69 nM for the second.

`COc1cccc(OC)c1-c1cc(C(=O)N[C@@H](CCN2CCCCC2)Cc2nnnn2C)nn1C1CCCC1` [compound 445, 1-cyclopentyl-5-(2,6-dimethoxyphenyl)-N-[(2S)-1-(1-methyl-1H-1,2,3,4-tetrazol-5-yl)-4-(piperidin-1-yl)butan-2-yl)-1H-pyrazole-3-carboxamide] and `COc1cccc(OC)c1-c1cc(C(=O)N[C@@H](CCN2CCCCC2)CC(=O)NC(C)(C)C)nn1C1CCCC1` [compound 333, (3S)-N-tert-butyl-3-{[1-cyclopentyl-5-(2,6-dimethoxyphenyl)-1H-pyrazol-3-yl]formamido}-5-(piperidin-1-yl)pentanamide] are within 1.5-fold of each other in EC50: 2830 nM for the first, 2530 nM for the second.

First: O=C(O)C[C@@H](NC(=O)c1cc(-c2ccccc2C(F)(F)F)n(C2CCCC2)n1)C(=O)NC1CCOCC1 [compound 559, (3R)-3-({1-cyclopentyl-5-[2-(trifluoromethyl)phenyl]-1H-pyrazol-3-yl}formamido)-3-[(oxan-4-yl)carbamoyl]propanoic acid]
Second: O=C(N[C@@H](CC1CCCC1)C(=O)O)c1cc(-c2ccccc2C(F)(F)F)n(C2CCCC2)n1 [compound 526, (2S)-3-cyclopentyl-2-({1-cyclopentyl-5-[2-(trifluoromethyl)phenyl]-1H-pyrazol-3-yl}formamido)propanoic acid]
The EC50 of the first is 2.9-fold lower: 596 nM for the first, 1720 nM for the second.

With `O=C(O)C[C@H](CCc1ccc(F)cc1)NC(=O)c1cc(-c2ccccc2C(F)(F)F)n(C2CCCC2)n1` [compound 463] the EC50 was 1240 nM.
